# Assays:
# cathepsin B [1] = target: T1, cathepsin B (Rattus norvegicus, UniProt P00787); test: In vitro assay procedure for cathepsin B (recombinant rat cathepsin B, N-CBZ-Phe-Arg-AMC substrate); type: biochemical; conditions: pH 5.1, 10 min incubation at room temperature
# Protocol: In vitro assay procedure for cathepsin B
# The compounds of formula I are tested for inhibition of cathepsin B using the known method (A. J. Barret et al., Biochem. J. 1982, 201, 189-198). To 170 μl of an enzyme-buffer mixture (enzyme: recombinant rat cathepsin B, diluted to give approximate 10 Fluorescence units/min, buffer: 56 mM sodium acetate, 1.124 mM EDTA, 10 mM DTT, pH 5.1) 10 μL of inhibitor (dissolved in DMSO) is added. After 10 min of incubation at room temperature, a 20 μl of 5 mM substrate (N-CBZ-Phe-Arg-AMC, dissolved in DMSO) is added to initiate reaction. Reading is followed up for 10 min on a Fluoroskan fluorescence reader (excitation at 380 nm, emission at 460 nm).
# (§1) A plot of percentage of inhibition vs inhibitor concentration is obtained, and IC50 is determined using a linear regression calculation (concentration of inhibitor which will give 50% inhibition).
# Target sequence in this assay (P00787 80-339): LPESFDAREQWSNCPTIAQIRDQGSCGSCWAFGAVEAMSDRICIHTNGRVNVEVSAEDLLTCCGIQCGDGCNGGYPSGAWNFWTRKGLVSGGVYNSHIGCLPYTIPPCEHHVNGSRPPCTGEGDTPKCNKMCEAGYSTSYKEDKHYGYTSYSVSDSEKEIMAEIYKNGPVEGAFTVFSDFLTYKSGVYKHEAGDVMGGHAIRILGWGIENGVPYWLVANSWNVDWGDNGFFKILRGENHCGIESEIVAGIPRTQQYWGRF
# cathepsin L [2] = target: T2, cathepsin L (Rattus norvegicus, UniProt P07154); test: In vitro assay procedure for cathepsin L (recombinant rat cathepsin L, N-CBZ-Phe-Arg-AMC substrate); type: biochemical; conditions: pH 5.0, 10 min incubation at room temperature
# Protocol: In vitro assay procedure for cathepsin L
# To 170 μl of enzyme-buffer mixture (enzyme: recombinant rat cathepsin L, diluted to give approximate 15 Fluorescence units/min, buffer: 58.8 mM sodium citrate, 1.18 mM EDTA, 235 mM sodium chloride, 5 mM DTT, pH 5.0) 10 μL of inhibitor (dissolved in DMSO) is added. After 10 min of incubation at room temperature, 20 μl of 1 mM substrate (N-CBZ-Phe-Arg-AMC, dissolved in DMSO) is added to initiate reaction. Reading is followed up for 10 min on a Fluoroskan fluorescence reader (excitation at 380 nm emission at 460 nm).
# as §1
# Target sequence in this assay (P07154 114-334): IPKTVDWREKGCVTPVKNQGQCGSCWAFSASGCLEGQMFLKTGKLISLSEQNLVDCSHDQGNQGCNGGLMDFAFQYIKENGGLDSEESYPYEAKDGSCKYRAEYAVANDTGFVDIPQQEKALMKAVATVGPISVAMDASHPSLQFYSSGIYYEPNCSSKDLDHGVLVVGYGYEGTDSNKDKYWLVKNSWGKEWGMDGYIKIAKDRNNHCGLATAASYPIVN
# cathepsin L [3] = test: In vivo inhibition test for cathepsin L, mouse liver ML fraction; conditions: 50 mg/kg intraperitoneal, 6 hours, mean for 3 animals
# Protocol: (§2) In vivo inhibition test for cathepsin B and L
# (§3) The in vivo inhibition of cathepsin B and L are tested according to the known method (T. Towatari et al, FEBS, 1991, 280, 311-315). Inhibitor is injected intraperitoneally into rodents as a solution in saline containing DMSO or DMSO:PEG400 (1:1) at the doses indicated in Table 2. The rodents are killed after 6 hours, and the liver is perfused with ice-cold saline, and chilled on ice. Sample of 4 g of liver are homogenized in 7 volumes of 0.25 M sucrose. The homogenate is centrifuged at 800 g for 15 min. and the supernatant is centrifuged at 12,000 g for 30 min. The precipitate (crude mitochondrial-lysosomal fraction; ML fraction) is suspended in 2 ml of 0.05 M acetate buffer, pH 5.0, and then freeze-thawed for measurements of cathepsin B and L.
# cathepsin B [4] = test: In vivo inhibition test for cathepsin B, mouse liver ML fraction; conditions: 50 mg/kg intraperitoneal, 6 hours, mean for 3 animals
# Protocol: as §2, §3
# cathepsin B [5] = target: T1, cathepsin B; test: In vivo inhibition test for cathepsin B, rat liver ML fraction; set-up: The precipitate (crude mitochondrial-lysosomal fraction; from tissue; host or cells: liver, crude mitochondrial-lysosomal (ML) fraction of dosed rodents; conditions: 6 hours, mean for 3 animals
# Protocol: as §2, §3
# Target sequence in this assay (P00787 80-126 limits assumed): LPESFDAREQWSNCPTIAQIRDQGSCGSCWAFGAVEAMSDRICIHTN
# Target sequence in this assay (P00787 129-333 limits assumed): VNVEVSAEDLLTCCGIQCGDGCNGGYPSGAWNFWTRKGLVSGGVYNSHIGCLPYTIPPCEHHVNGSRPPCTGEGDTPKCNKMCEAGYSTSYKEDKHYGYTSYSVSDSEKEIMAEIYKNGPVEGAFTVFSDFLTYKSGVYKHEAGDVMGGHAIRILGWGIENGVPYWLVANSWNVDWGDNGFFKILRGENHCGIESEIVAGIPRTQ
# cathepsin L [6] = target: T2, cathepsin L; test: In vivo inhibition test for cathepsin L, rat liver ML fraction; set-up: The precipitate (crude mitochondrial-lysosomal fraction; from tissue; host or cells: liver, crude mitochondrial-lysosomal (ML) fraction of dosed rodents; conditions: 6 hours, mean for 3 animals
# Protocol: as §2, §3
# Target sequence in this assay (P07154 114-288 limits assumed): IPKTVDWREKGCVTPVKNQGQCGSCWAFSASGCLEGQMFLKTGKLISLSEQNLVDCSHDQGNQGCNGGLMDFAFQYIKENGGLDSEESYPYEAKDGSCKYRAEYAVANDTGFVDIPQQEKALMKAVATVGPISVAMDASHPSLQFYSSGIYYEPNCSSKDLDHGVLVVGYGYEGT
# Target sequence in this assay (P07154 291-334 limits assumed): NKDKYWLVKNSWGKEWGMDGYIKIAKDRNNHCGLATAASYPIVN
Structure (SMILES),IC50 (cathepsin B [1]) [nM],IC50 (cathepsin L [2]) [nM],also measured
"CC(=O)O[C@@H]1NC(=O)[C@H]1NC(=O)[C@H](CC1CCCCC1)NC(=O)OCc1ccccc1 [Example 1, (3S,4S)-3-(2S-2-benzyloxycarbonylamino-2-cyclohexylmethyl-acetamido)-4-acetoxy-azetidin-2-one]",8710,780,–
"CC(=O)O[C@@H]1NC(=O)[C@H]1NC(=O)[C@H](CC1CCCCC1)NC(=O)CCc1ccccc1 [Example 2, (3S,4S)-3-{2S-2-(3-phenylpropionoyl)amino-2-cyclohexylmethyl-acetamido}-4-acetoxy-azetidin-2-one]",11600,2320,–
"N[C@@H](Cc1ccc(O[C@@H]2NC(=O)[C@H]2NC(=O)[C@H](CC2CCCCC2)NC(=O)CCc2ccccc2)cc1)C(=O)O [Example 3, (3S,4S)-3-{2S-2-(3-phenylpropionoyl)amino-2-cyclohexylmethyl-acetamido}-4-{4-(2S-2-amino-2-carboxy-ethyl)-phenoxy}-azetidin-2-one]",34000,1820,Inhibition Cathepsin L (cathepsin L [3]): 55%; Inhibition Cathepsin B (cathepsin B [4]): 65%
"N[C@@H](Cc1ccc(O[C@H]2NC(=O)[C@H]2NC(=O)[C@H](CC2CCCCC2)NC(=O)CCc2ccccc2)cc1)C(=O)O [Example 4, (3S,4R)-3-{2S-2-(3-phenylpropionoyl)amino-2-cyclohexylmethyl-acetamido}-4-{4-(2S-2-amino-2-carboxy-ethyl)-phenoxy}-azetidin-2-one]",9200,1800,–
"O=C(CCc1ccccc1)N[C@@H](CC1CCCCC1)C(=O)N[C@H]1C(=O)NC1Sc1ccccc1 (stereo partly drawn) [Example 5, (3S,4SR)-3-{2S-2-(3-phenylpropionoyl)amino-2-cyclohexylmethyl-acetamido}-4-phenylthio-azetidin-2-one]",10400,16,–
"O=C(CCc1ccccc1)N[C@@H](CC1CCCCC1)C(=O)N[C@H]1C(=O)NC1S(=O)(=O)c1ccccc1 (stereo partly drawn) [Example 6, (3S,4SR)-3-{2S-2-(3-phenylpropionoyl)amino-2-cyclohexylmethyl-acetamido}-4-phenylsulfonyl-azetidin-2-one]",29000,78,–
"CC(=O)O[C@@H]1NC(=O)[C@H]1NC(=O)[C@H](CC1CCCCC1)NC(=O)NCc1ccccc1 [Example 7, (3S,4S)-3-{2S-2-(benzylaminocarbonyl)amino-2-cyclohexylmethyl-acetamido}-4-acetoxy-azetidin-2-one]",11600,2300,–
"CC(=O)O[C@@H]1NC(=O)[C@H]1NC(=O)[C@H](CC1CCCCC1)NS(=O)(=O)/C=C/c1ccccc1 [Example 8, (3S,4S)-3-{2S-2-(phenylethenylsulfonyl)amino-2-cyclohexylmethyl-acetamido}-4-acetoxy-azetidin-2-one]",11000,2160,–
"Cc1cccc(O[C@@H]2NC(=O)[C@H]2NC(=O)[C@H](CC2CCCCC2)NC(=O)OCc2ccccc2)c1 [Example 9A, (3S,4S)-3-(2S-2-benzyloxycarbonylamino-2-cyclohexylmethyl-acetamido)-4-(3-methyl-phenoxy)-azetidin-2-one]",6900,83,–
"Cc1cccc(O[C@H]2NC(=O)[C@H]2NC(=O)[C@H](CC2CCCCC2)NC(=O)OCc2ccccc2)c1 [Example 9B, (3S,4R)-3-(2S-2-benzyloxycarbonylamino-2-cyclohexylmethyl-acetamido)-4-(3-methyl-phenoxy)-azetidin-2-one]",250,3,–
"O=C(C=Cc1ccncc1)N[C@@H](CC1CCCCC1)C(=O)N[C@@H]1C(=O)N[C@H]1Oc1ccccc1 [Example 10, (3S,4S)-3-{2S-2-[3-(pyridin-4-yl)propenoyl]amino-2-cyclohexylmethyl-acetamido}-4-phenoxy-azetidin-2-one]",1000,400,–
"O=C(C=Cc1cccnc1)N[C@@H](CC1CCCCC1)C(=O)N[C@@H]1C(=O)N[C@H]1Oc1ccccc1 [Example 11, (3S,4S)-3-{2S-2-[3-(pyridin-3-yl)propenoyl]amino-2-cyclohexylmethyl-acetamido}-4-phenoxy-azetidin-2-one]",2200,430,–
N[C@@H](Cc1ccc(O[C@@H]2NC(=O)[C@H]2NC(=O)[C@H](Cc2ccccc2)NC(=O)CCc2ccccc2)cc1)C(=O)O [Ref. Compd.],–,–,Inhibition Cathepsin B (cathepsin B [5]; 30 mg/kg intraperitoneal): 37%; Inhibition Cathepsin B (cathepsin B [5]; 70 mg/kg intraperitoneal): 56%; Inhibition Cathepsin L (cathepsin L [6]; 30 mg/kg intraperitoneal): 30%; Inhibition Cathepsin L (cathepsin L [6]; 70 mg/kg intraperitoneal): 55%
